Assay results reported in patent US20250375444A1, “METHOD OF TREATING ALZHEIMER’S DISEASE” (AmyriAD Pharma, Inc., priority 2021, published 2025).
“Also recorded” adds a separate entry of the source. Where two headings read alike, the source gives them in different places.

What was measured:
AD subjects [1] = test: 12-week open-label multicenter safety extension study (Study 401) of AD101
Procedure: (§1) Subjects were titrated as follows: all subjects receive 60 mg once daily for the first month, 120 mg once daily for the second month and 180 mg once daily for the third month. Dose increases were dependent on the subject's tolerability of the previous dose.

[2] = test system: subjects having probable AD; settings: cited from earlier work
AD subjects [3] = test: Safety extension study: subjects started on memantine hydrochloride; assay type: in vivo, human; settings: for Adverse Events during Memantine Co-administration: 401: 180 mg AD101
Procedure: as §1

[4] = test system: amyloid precursor protein; settings: cited from earlier work
[5] = test system: extracellular ACh and dopamine concentrations
[6] = test system: Ca^2+/calmodulin-dependent protein kinase II (CaMK II); settings: cited from earlier work
Aβ-like deposits = settings: in vivo; cited from earlier work
[7] = test system: ubiquitin-proteasome system pathway; settings: cited from earlier work
protein kinase C = settings: cited from earlier work
[8] = test system: nicotine-stimulated release of ACh
[9] = test system: pro-ADAM10 and/or BACE protein; settings: cited from earlier work
[10] = test system: acetylcholine (ACh) levels; settings: rodent brains; cited from earlier work
[11] = test system: long-term potentiation (LTP); settings: cited from earlier work
[12] = Total, unique subjects (N = 293)
[13] = Total, unique subjects (N = 293), denominator 293
[14] = all doses, safety population 293 subjects

## O=C1N=C2C=CC=CN2C12Cc1ccccc1C2 [AD101, 1′,3′-dihydro-2H-spiro[imidazo[1,2α]pyridine-3,2′-inden]-2-one]
AD subjects [1]; 60 mg QD (N = 293)
  Discontinued Early: 16 n
  Discontinued Early: Adverse Event: 8 n
AD subjects [1]; 60 mg QD (N = 293), denominator 293
  Discontinued Early: Adverse Event: (2.7) %
AD subjects [1]; 120 mg QD (N = 276)
  Discontinued Early: 14 n
  Discontinued Early: Adverse Event: 4 n
AD subjects [1]; 120 mg QD (N = 276), denominator 293
  Discontinued Early: Adverse Event: (1.4) %
AD subjects [1]; 180 mg (N = 243)
  AE: Fatigue: 0 n
  AE: Somnolence: 0 n
AD subjects [1]; 180 mg QD (N = 243)
  Discontinued Early: 6 n
  Discontinued Early: Adverse Event: 5 n
AD subjects [1]; 180 mg QD (N = 243), denominator 293
  Discontinued Early: Adverse Event: (1.7) %
AD subjects [1]; 180 mg QD vs 60 mg QD and 120 mg QD
  Safety of 180 mg QD versus lower doses: at least as safe as
AD subjects [1]; 3-month open-label extension, 60 to 180 mg QD
  New safety or tolerability issues: No new safety or tolerability issues were identified
AD subjects [1]; 60, 120, 180 mg
  Pattern of nature or frequency of specific AE related to dose: There does not appear to be any pattern related to AD101 dose
AD subjects [1]; SAE #00036: syncope, person on 180 mg
  Relationship of SAEs to study drug (investigator): unrelated to study drug with the exception of SAE #00036
AD subjects [1]; [12]
  Discontinued Early: 36 n
  Discontinued Early: Adverse Event: 17 n
  Subjects with any AE: 51.2%
AD subjects [1]; [13]
  Discontinued Early: (12.3) %
  Discontinued Early: Adverse Event: (5.8) %
AD subjects [1]; [14]
  Serious Adverse Events (SAEs), number of events: 17
  Subjects with Serious Adverse Events: 17 subjects
AD subjects [1]; dose at time of event 60 mg
  SAE Event (individual subject): Asthma; also recorded: Chest Pain; also recorded: Fractured Wrist; also recorded: Seizure; also recorded: Syncope (vasovagal); also recorded: Vestibular neuronitis; also recorded: GI bleed 2°to
AD subjects [1]; dose at time of event 120 mg
  SAE Event (individual subject): Lightheaded; also recorded: Fractured right; also recorded: Fx Left
AD subjects [1]; dose at time of event 180 mg
  SAE Event (individual subject): Syncope; also recorded: Fractured; also recorded: Chest Pain; also recorded: Pneumonia/Pulmonary
AD subjects [1]; dose at time of event N/A (10 days after completing 401)
  SAE Event (individual subject): Multiple CVAs
AD subjects [1]; multiple cerebral vascular accidents, deemed unrelated, 10 days post-study after 60, 120 and 180 mg for 4 weeks each
  Death: 1
AD subjects [1]; on 60 mg AD101
  SAEs by dose at time of event: 7
AD subjects [1]; on 120 mg AD101
  SAEs by dose at time of event: 5
AD subjects [1]; on 180 mg AD101
  SAEs by dose at time of event: 4
[2]; 10, 60 and 120 mg per day analyzed separately
  Dose response in primary outcome measures: no discernable dose response
[2]; up to 120 mg QD, 12 weeks, with 10 mg donepezil hydrochloride QD
  AD101-related safety concerns: No significant AD101-related safety concerns were identified
AD subjects [3]; 5 subjects taking memantine hydrochloride, AD101 up to 180 mg
  Laboratory or vitals sign abnormalities: no clinically significant laboratory or vitals sign abnormalities were observed
AD subjects [3]; Subject 03-2003, memantine 5 mg BID ongoing
  Adverse Events during Memantine Co-administration: No new AEs.
AD subjects [3]; Subject 14-2108, memantine titrated 5 mg QD to 10 mg BID over 4 weeks
  Adverse Events during Memantine Co-administration: No new AEs.
AD subjects [3]; Subject 14-2178, memantine titrated 5 mg QD to 10 mg BID over 4 weeks
  Adverse Events during Memantine Co-administration: Sinus headache ×1 day,; also recorded: Dizzy/lightheaded over 18; also recorded: Vomiting ×1 day, occurred 2
AD subjects [3]; Subject 18-2018, memantine 10 mg QD
  Adverse Events during Memantine Co-administration: Decreased appetite ×9 days; also recorded: UTI ×7 days began 30 days; also recorded: Confusion ×8 days, began 38; also recorded: Anxiety, ongoing at; also recorded: URI ×14 days began 30 days
AD subjects [3]; Subject 18-2122, memantine 10 mg QD
  Adverse Events during Memantine Co-administration: No new AEs.
[4]
  Cleavage of amyloid precursor protein: induce cleavage
[5]; cerebral cortex
  Extracellular ACh concentrations: increases
[5]; hippocampus
  Extracellular ACh concentrations: increases
  Extracellular dopamine concentrations: increases
[6]
  Activity of CaMK II: increased activity
Aβ-like deposits
  Accumulation of Aβ-like deposits: decreases accumulation
[7]
  Activity of the ubiquitin-proteasome system pathway: enhance the activity
Protein kinase C
  Activity of protein kinase C: increased activity
[8]
  Nicotine-stimulated release of ACh: potentiates
[9]
  Level of pro-ADAM10 and/or BACE protein: decrease the level
[10]
  Acetylcholine (ACh) levels: increase
[11]
  Long-term potentiation (LTP): enhancement
